In this assay the test system is theta power. As to the kind of experiment: EEG study on theta power modulation by THC and Lion's Mane extract (randomized, double-blind, crossover). Type of assay: in vivo, human. The following applies: for global theta power change: 16-node EEG, normalized theta power. Here is the method:
Participants: 10 healthy adults (18-45 years) in a randomized, double-blind, crossover trial.
Treatments: Baseline (placebo), Lion's Mane (2.2 g), THC (5 mg), THC+Lion's Mane.
Administration: Nanoemulsion beverages for rapid absorption.
EEG recordings: 16-node headset measured theta power at 0 min (baseline), 15 min, and 30 min.
Normalized theta power analyzed via mixed-effects ANOVA.
Topographic mapping for spatial changes.

In the case of `CCCCCc1cc(O)c2c(c1)OC(C)(C)[C@@H]1CCC(C)=C[C@@H]21` [THC, Δ9-tetrahydrocannabinol], the “global theta power change” value is on record as −8.9% (15 min after nanoemulsion beverage) and 19.4% (30 min after nanoemulsion beverage). Also, the “theta power change, frontal nodes F3, F7 and FC5” value (15 minutes) is −14.6%. Further, the “theta power change, frontal nodes” value (30 minutes) is reported as 33.2%. Besides, the “theta power change, parietal (P3, P4) and occipital (O1, O2) nodes” value (nodes P3, P4, O1, O2) was 4-8%.

The values are drawn from patent US20250325610A1, “Compositions Containing Cannabis and Hericium Extracts for the Improvement of Mental Health and Treatment of CNS Disorders” (DrinkBrez, LLC, priority 2024, published 2025).
